# Test results published in paper PMC10940318, “Targeted intracellular delivery of dimeric STINGa by two pHLIP peptides for treatment of solid tumors” (Frontiers in Pharmacology, 2024).
# Tests used:
# [1] = Body weight of treated mice; format: in vivo, Balb/c mice; details: two IP injections, 300 µM or 100 µM 500 µL, days 1 and 3
# Method: For the treatment of CT26 tumors, 5 × 10^4 CT26 murine colorectal cancer cells (ATCC, CRL-2638) were injected subcutaneously (SQ) in 100 μL of growth medium into the right flank of female Balb/c mice ranging in age from 7 to 9 weeks (Envigo RMS, Inc.). […] 2pHLIP-dMSA was given as two IP injections of 300 μM 500 μL or 100 μM 500 μL (low dose). The compounds were dissolved in DMSO as a stock solution and transferred to PBS (vehicle). The residual DMSO in the final solution injected into animals was less than 2%. Tumor volume and body weight were measured 3 times per week throughout the study. Measurements of tumors were performed using calipers, and the tumor volume (V) was calculated with the formula: V=0.52∙L∙W^2 where L is the length and W is the width of the measured tumor. Mice were removed from the study and euthanized when the tumor volume was greater than 2,000 mm^3.
# [2] = Stopped-flow fluorescence kinetics of membrane insertion and exit; format: physicochemical; details: POPC liposomes
# Method: Fluorescence kinetics was measured using a SFM-300 mixing system (Bio-Logic Science Instruments) in combination with the MOS-450 spectrometer with the temperature control set to 25°C. All samples were degassed before measurement to minimize air bubbles in the samples. pHLIP-mMSA/2pHLIP-dMSA and POPC samples were incubated overnight to reach equilibrium, when most of the agent was associated with liposome lipid bilayers. […] To follow exit of pHLIP-mMSA/2pHLIP-dMSA from the membrane, a low pH solution containing 14 μM pHLIP-mMSA/2pHLIP-dMSA and 2.8 mM POPC was mixed with dibasic phosphate buffer to raise the pH from 4 to 7.4. To monitor the fluorescence intensity changes during pHLIP-mMSA/2pHLIP-dMSA insertion induced by the pH change, the emission signal was observed through a cut-off 320 nm filter at an excitation of 295 nm.
# [3] = Blood clearance (PK) by whole blood fluorescence imaging; format: in vivo, Balb/c mice
# Method: For biodistribution studies 5 × 10^4 of CT26 cancer cells were injected SQ in 100 µL of growth medium into the right flank of female Balb/c mice and tumors were grown until they reached 150–250 mm^3 in volume. Then a single retro-orbital (RO) injection of 50 μM 100 μL of 2(ICG-pHLIP)-dMSA was performed. Animals were euthanized at 5 min, 1, 4, 24, 48, 72, and 120 h post-injection, blood was collected in K2 EDTA vacutainer blood collection tubes (BD), and necropsy was performed immediately after animals were euthanized. Blood, tumors and major organs (kidney, liver, spleen, pancreas, lung, heart, large and small intestines, bone, muscle, brain) were collected, and imaged ex vivo immediately after necropsy. Blood (200 µL) was imaged in 96-well plates with black bottom and walls.
# The in vivo and ex vivo bright field and near-infrared fluorescent imaging employed a Stryker 1588 AIM endoscopic system with L10 AIM Light Source (808 nm excitation and collection of light in the range of approximately of 815–850 nm), and a 1588 AIM Camera using a 10 mm scope. The lens was kept at a fixed distance from the surface of the organs, within an enclosed (light-protected) area. Calibration curves converting laser and gain settings were established by imaging of pHLIP-ICG solution at different concentrations. The ex vivo fluorescence imaging of tissue specimens was performed using three different laser settings and six different gain settings. The digital fluorescence images were split into RGB channels, with the green channel being analyzed using ImageJ program to calculate the average fluorescence intensity. All average intensities were adjusted based on their capture settings and using calibration curves to present fluorescence intensities corresponding to the unified (the same) settings.
# [4] = test system: CT26 cancer cells; assay: Re-challenge of tumor-free mice with CT26 cancer cells; format: in vivo, Balb/c mice; details: 11 survivors of both dose groups, contralateral flank, kept 40 more days
# Excerpt: In the 2pHLIP-dMSA treated groups the mice that stayed tumor-free were re-challenged with tumor cells injected into the tumor-free flank on day 65 after the first injection of 2pHLIP-dMSA. Tumor-free mice were kept for an additional 40 days (total of 105 days after the treatment with 2pHLIP-dMSA) and then were euthanized.
sequence,measurement,setting,value
ADQDNPWRAYLDLLFPTDTLLLDLLWCG [2pHLIP-dMSA],body weight change after treatment (in words),[1],temporary weight loss followed by complete recovery and regain of weight
same,time to completion of insertion into the lipid bilayer,"[2]; pH drop from pH 7.4 to 4, 25°C, fluorescence ex 295 nm",≤ 100 ms
same,kinetics of membrane insertion (in words),"[2]; pH drop from pH 7.4 to 6, compared with pHLIP-mMSA",more efficient and faster than the insertion of pHLIP-mMSA
same,exit from the lipid bilayer (in words),"[2]; pH rise from pH 4 to 7.4 and from pH 4 to 5.5, compared with pHLIP-mMSA",slightly slower
same,circulation in the blood,"[3]; mice, stated in discussion",1 to 2 days
same,blood clearance half-life,"[3]; single RO injection of 2(ICG-pHLIP)-dMSA 50 µM 100 µL, CT26 tumor-bearing female Balb/c mice, whole blood fluorescence, exponential fit",> 30 h
same,tumor development after re-injection of cancer cells on day 65,[4],none of them developed tumors
